# Measurements: the supplement of paper PMC10307832
# What was measured:
# Experiment in all cases: relative viability (nuclei count vs DMSO), 5 days (fraction); higher = more cells survive
# [1] = compound: Cn1nnc2c(C(N)=O)ncn2c1=O [Temozolomide] + CC(=O)c1c(C)c2cnc(Nc3ccc(N4CCNCC4)cn3)nc2n(C2CCCC2)c1=O [Palbociclib] (partner 0.5 µM)
# Method in brief: (§1)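 Each reported value is a median over duplicate plates. It expresses relative viability: treated-well nuclei count divided by vehicle-well nuclei count. Lung cancer cell lines in 1536-well plates were dosed by pin tool a day after seeding, alone with one drug or with a fixed anchor-drug dose plus five library-drug doses (not always all listed) in √10 steps, and nuclei were counted after 5 days.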
# [2] = compound: Cn1nnc2c(C(N)=O)ncn2c1=O [Temozolomide] + CS(=O)(=O)N1CCN(Cc2cc3nc(-c4cccc5[nH]ncc45)nc(N4CCOCC4)c3s2)CC1 [Pictilisib] (partner 1 µM)
# Method in brief: as §1
# AZD5582 + Palbociclib = compound: C[C@@H](C(=O)N[C@@H](C1CCCCC1)C(=O)N2CCC[C@H]2C(=O)N[C@@H]3[C@@H](CC4=CC=CC=C34)OCC#CC#CCO[C@@H]5CC6=CC=CC=C6[C@@H]5NC(=O)[C@@H]7CCCN7C(=O)[C@H](C8CCCCC8)NC(=O)[C@H](C)NC)NC [AZD5582] + CC(=O)c1c(C)c2cnc(Nc3ccc(N4CCNCC4)cn3)nc2n(C2CCCC2)c1=O [Palbociclib] (partner 0.5 µM)
# Method in brief: as §1
# [3] = compound: Cn1nnc2c(C(N)=O)ncn2c1=O [Temozolomide] + CC(=O)Nc1cccc(-n2c(=O)n(C3CC3)c(=O)c3c(Nc4ccc(I)cc4F)n(C)c(=O)c(C)c32)c1 [Trametinib] (partner 0.02 µM)
# Method in brief: as §1
Cell Line,relative viability ([1]; first compound 0.2 µM),relative viability ([1]; first compound 0.6325 µM),relative viability ([1]; first compound 2 µM),relative viability ([1]; first compound 6.325 µM),relative viability ([1]; first compound 20 µM),relative viability ([2]; first compound 0.2 µM),relative viability ([2]; first compound 0.6325 µM),relative viability ([2]; first compound 2 µM),relative viability ([2]; first compound 6.325 µM),relative viability ([2]; first compound 20 µM),relative viability (AZD5582 + Palbociclib; first compound 0.001581 µM),relative viability (AZD5582 + Palbociclib; first compound 0.005 µM),relative viability (AZD5582 + Palbociclib; first compound 0.01581 µM),relative viability (AZD5582 + Palbociclib; first compound 0.05 µM),relative viability ([3]; first compound 0.2 µM),relative viability ([3]; first compound 0.6325 µM),relative viability ([3]; first compound 2 µM),relative viability ([3]; first compound 6.325 µM),relative viability ([3]; first compound 20 µM)
HCC-44,0.984,0.943,0.921,0.988,0.981,0.599,0.611,0.69,0.566,0.534,0.906,0.931,1.02,0.928,1.06,1.16,1.08,1.05,0.956
HCC-78,0.474,0.475,0.458,0.473,0.487,0.26,0.221,0.211,0.21,0.193,0.435,0.474,0.474,0.432,0.602,0.793,0.646,–,0.736
HCC-366,0.449,0.467,0.341,0.396,0.369,0.164,0.152,0.198,0.212,0.219,0.347,0.319,0.322,0.43,0.395,0.31,0.427,0.425,0.329
HCC-827,0.461,0.449,0.513,0.517,0.148,0.82,0.958,1.06,1.05,0.313,0.481,0.47,0.492,0.529,0.56,0.593,0.286,0.532,0.136
HOP-62,0.545,0.488,0.473,0.375,0.447,0.918,0.961,0.816,0.385,0.545,0.297,0.46,0.453,0.379,0.395,0.445,0.399,0.424,0.367
IA-LM,–,–,–,–,–,0.279,0.376,0.385,0.266,0.328,–,–,–,–,–,–,–,–,–
LC-2-ad,0.474,0.494,0.512,0.537,0.473,0.554,0.546,0.511,0.593,0.481,0.465,0.535,0.46,0.543,0.935,0.926,0.912,0.895,0.859
LCLC-97TM1,0.272,0.237,0.197,0.231,0.191,0.197,0.224,0.163,0.178,0.17,0.172,0.282,0.24,0.165,0.222,0.161,0.234,0.199,0.173
LCLC-103H,0.503,0.514,0.496,0.608,0.413,0.614,0.523,0.816,0.509,0.62,0.47,0.469,0.432,0.377,0.725,0.624,0.686,0.678,0.617
LK-2,0.599,0.719,0.601,0.327,0.2,0.48,0.568,0.575,0.353,0.305,0.553,0.738,–,0.75,0.653,0.685,0.663,0.653,0.489
LOU-NH91,0.585,0.566,0.552,0.557,0.572,0.512,0.547,0.551,0.523,0.497,0.529,0.54,0.487,0.532,0.731,0.806,0.793,0.806,0.7
NCI-H522,0.976,0.919,1.05,1.02,0.682,–,–,–,–,–,0.963,1.02,1.11,0.912,0.654,0.724,0.954,0.691,0.671
NCI-H596,–,–,–,–,–,0.421,0.404,0.411,0.385,0.384,–,–,–,–,0.916,0.714,0.943,0.789,0.877
NCI-H1299,–,–,–,–,–,0.823,0.8,0.744,0.784,0.847,–,–,–,–,–,–,–,–,–
NCI-H1563,–,–,–,–,–,0.654,0.619,0.642,0.609,0.664,–,–,–,–,–,–,–,–,–
NCI-H1648,–,0.23,0.318,0.273,0.283,–,–,–,–,–,0.264,0.311,–,0.274,–,0.477,0.454,0.545,0.307
NCI-H2342,0.501,0.529,0.521,0.491,0.53,–,–,–,–,–,0.492,0.518,0.491,0.54,0.638,0.848,0.757,0.799,0.818
SW 900,0.598,0.612,0.556,0.559,0.468,–,–,–,–,–,0.443,0.566,0.531,0.435,0.728,0.783,0.966,1,0.59
